Test results: publication PMC3901395, “Multivalent interactions of the SUMO-interaction motifs in RING finger protein 4 determine the specificity for chains of the SUMO” (Biochemical Journal, 2013)
Peptide text beside a SMILES is read from it.

Experiments:
2xSUMO2ΔN11 (di-SUMO2) = biological target: T1, 2xSUMO2ΔN11 (di-SUMO2) (Homo sapiens, UniProt P61956); assay: ITC binding to linear di-SUMO2 (2xSUMO2ΔN11); conditions: linear di-SUMO2
T1 construct: Each monomer in these chains is separated by RS replacing the natural GG motif; a C-terminal GG motif and a stop codon; GST (N, cleaved yes); made in house; host or cells: E. coli Rosetta 2(DE3)pLysS
Excerpt: (§1) For expression in Escherichia coli, linear poly-SUMO chains were generated as described previously with slight modifications. After the combined PCR/ligation reaction, the 4×SUMO2-ΔN11 or 4×SUMO1-ΔN15 DNA polymers were separated from smaller polymers by agarose gel electrophoresis and individually extracted (Macherey–Nagel). These were then subjected to a second PCR with primers to create BamHI and XhoI restriction sites, a C-terminal GG motif and a stop codon. The resulting fragments coding for di-, tri- and tetra-SUMO2-ΔN11 or SUMO1-ΔN15 chains were amplified and cloned into pGEX-4T2. […] Each monomer in these chains is separated by RS replacing the natural GG motif. A similar strategy was used to design C-terminally GFP–HA2-tagged linear poly-SUMOs in the copper-inducible Ycplac22 vector for expression in S. cerevisiae. […]
(§2) The mono-SUMOs and linear poly-SUMO1 and poly-SUMO2 proteins as well as all RNF4 constructs were expressed as GST-fusion proteins from E. coli Rosetta™ 2(DE3)pLysS cells (Novagen) cultivated in LB medium with 100 μg/ml ampicillin and 30 μg/ml chloramphenicol after induction with 0.1 mM IPTG at 20°C for 12 h. […]
(§3) Binding of peptides and proteins to SUMOs was investigated by ITC using either a VP-ITC or an ITC200 (GE Healthcare). […] Protein concentrations were determined by measuring the absorption at 280 nm. […]

1xSUMO2ΔN11 (mono-SUMO2) = biological target: T2, 1xSUMO2ΔN11 (mono-SUMO2) (Homo sapiens, UniProt P61956); assay: ITC binding to mono-SUMO2 (1xSUMO2ΔN11)
T2 construct: a C-terminal GG motif and a stop codon; GST (N, cleaved yes); made in house; host or cells: E. coli Rosetta 2(DE3)pLysS
Excerpt: as §1, §2, §3

T1 sequence (P61956 with tags, fused parts or gaps): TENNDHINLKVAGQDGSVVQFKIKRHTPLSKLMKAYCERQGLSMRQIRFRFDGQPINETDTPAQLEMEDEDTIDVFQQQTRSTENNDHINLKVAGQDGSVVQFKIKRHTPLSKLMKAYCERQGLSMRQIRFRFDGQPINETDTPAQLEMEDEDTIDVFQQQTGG
T2 sequence (P61956 12-93 limits assumed, stated change not applied): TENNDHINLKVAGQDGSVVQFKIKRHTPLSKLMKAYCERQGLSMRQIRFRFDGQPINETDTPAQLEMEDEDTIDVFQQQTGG

Structure (SMILES) | affinity for di-SUMO2 (2xSUMO2ΔN11 (di-SUMO2)) | affinity for mono-SUMO2 (1xSUMO2ΔN11 (mono-SUMO2))
CC[C@H](C)[C@H](NC(=O)[C@@H](NC(=O)[C@H](CCC(=O)O)NC(=O)[C@H](CO)NC(=O)[C@H](CO)NC(=O)[C@H](CO)NC(=O)[C@H](CO)NC(=O)[C@H](CC(=O)O)NC(=O)[C@@H](NC(=O)[C@@H](NC(=O)[C@H](CC(C)C)NC(=O)[C@H](CC(=O)O)NC(=O)[C@@H](NC(=O)[C@@H](NC(=O)[C@H](CCC(=O)O)NC(=O)[C@@H](NC(=O)[C@H](CCCCN)NC(=O)[C@@H](N)CCCCN)C(C)C)C(C)C)[C@@H](C)CC)[C@@H](C)O)[C@@H](C)CC)C(C)C)C(=O)N[C@@H](CC(=O)O)C(=O)N[C@@H](CC(C)C)C(=O)N[C@H](C(=O)N[C@H](C(=O)N[C@@H](CC(=O)O)C(=O)N[C@@H](CO)C(=O)N[C@@H](CO)C(=O)O)[C@@H](C)CC)[C@@H](C)O [2xPIAS1pep, reference compound] (H-KKVEVIDLTIDSSSSEVIDLTIDSS-OH; N-terminus and C-terminus assumed) | exceeded the affinities of the RNF4-SIM2/3 peptide | –
CC[C@H](C)[C@H](NC(=O)[C@@H](NC(=O)[C@H](CCC(=O)O)NC(=O)[C@@H](NC(=O)[C@H](CCCCN)NC(=O)[C@@H](N)CCCCN)C(C)C)C(C)C)C(=O)N[C@@H](CC(=O)O)C(=O)N[C@@H](CC(C)C)C(=O)N[C@H](C(=O)N[C@H](C(=O)N[C@@H](CC(=O)O)C(=O)N[C@@H](CO)C(=O)N[C@@H](CO)C(=O)N[C@@H](CO)C(=O)N[C@@H](CC(=O)O)C(=O)N[C@@H](CCC(=O)O)C(=O)O)[C@@H](C)CC)[C@@H](C)O [PIAS1pep] (H-KKVEVIDLTIDSSSDE-OH; N-terminus and C-terminus assumed) | – | much stronger than the binding of any RNF4-derived tandem SIM peptide
CC[C@H](C)[C@H](NC(=O)[C@H](CCC(=O)O)NC(=O)[C@H](CC(=O)O)NC(=O)CN)C(=O)N[C@H](C(=O)N[C@@H](CC(=O)O)C(=O)N[C@@H](CC(C)C)C(=O)N[C@H](C(=O)N[C@@H](CS)C(=O)N[C@@H](CCC(=O)O)C(=O)N[C@@H](CO)C(=O)N[C@@H](CC(C)C)C(=O)N[C@@H](CCC(=O)O)C(=O)N1CCC[C@H]1C(=O)N[C@H](C(=O)N[C@H](C(=O)N[C@H](C(=O)N[C@@H](CC(=O)O)C(=O)N[C@@H](CC(C)C)C(=O)N[C@H](C(=O)N[C@@H](Cc1c[nH]cn1)C(=O)N[C@@H](CC(N)=O)C(=O)N[C@@H](CC(=O)O)C(=O)N[C@@H](CO)C(=O)O)[C@@H](C)O)C(C)C)C(C)C)C(C)C)[C@@H](C)O)C(C)C [RNF4-SIM2/3pep] (H-GDEIVDLTCESLEPVVVDLTHNDS-OH; N-terminus and C-terminus assumed) | very similar to the one of the whole RNF4-SIM domain for di-SUMO2 | –
